Target: T1, SIRT7 protein (Homo sapiens, UniProt Q9NRC8)
T1 construct: purchased SignalChem S41-30H
T1 sequence (Q9NRC8 1-400): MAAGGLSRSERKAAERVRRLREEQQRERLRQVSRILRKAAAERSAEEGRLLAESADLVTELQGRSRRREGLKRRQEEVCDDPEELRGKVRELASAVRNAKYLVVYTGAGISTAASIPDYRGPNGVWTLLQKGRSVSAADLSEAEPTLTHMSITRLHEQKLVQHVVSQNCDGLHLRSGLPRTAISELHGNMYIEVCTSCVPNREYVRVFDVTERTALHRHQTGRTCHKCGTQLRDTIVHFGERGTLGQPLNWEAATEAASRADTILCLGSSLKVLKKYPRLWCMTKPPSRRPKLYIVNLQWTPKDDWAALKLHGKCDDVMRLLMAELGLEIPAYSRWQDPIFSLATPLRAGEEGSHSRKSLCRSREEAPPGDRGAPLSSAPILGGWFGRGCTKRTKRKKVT
Test: SIRT Glo assay, inhibitory activity against Sirt7
Type: biochemical
Conditions: 10 μM compound
Description: Promega's Cat. No. 6450 SIRT Glo assay kit was used, and as the target SIRT7 protein, No. S41-30H protein of SignalChem's Cat. was used. Prepare the compound by diluting it in SIRT Glo buffer in advance to a concentration twice as thick as the final concentration. For the positive control group of white 384 well plate (Greiner Bioone, white, small volume, Cat. No. 874075), and for compound group, dilute sirt7 protein in SIRT Glo buffer and dispense by 5 μL to contain 20 ng per well. In the background control group, 10 μL of SIRT Glo buffer is dispensed.
After adding 5 μL of SIRT Glo buffer to the positive control group, and 5 μL of the diluted compound to the compound group, react for 30 minutes. After making the substrate provided in the SIRT Glo assay, adding 10 μL each, and reacting for 1 hour, the luciferase activity is measured with a microplate reader (Molecular Device, spectramax i3).
Subtract the luciferase level of the background control group in all wells. The % inhibition of the compound was used to obtain the compound's rate of inhibitory activity against sirt7 in the following:
% inhibition=100−(compound group/positive control group)×100.

SMILES: CC(C)(C)OC(=O)N1CCN(Cc2ccc(C(=O)Nc3nc4ccccc4[nH]3)cc2)CC1 [Compound 1-1, Tert-Butyl 4-(4-((1H-benzo[d]imidazol-2-yl)carbamoyl)benzyl)piperazine-1-carboxylate]
- inhibition at 10 µM: 12%

SMILES: Cn1c(NC(=O)c2ccc(CN3CCN(C(=O)OC(C)(C)C)CC3)cc2)nc2ccccc21 [Compound 1-2, Tert-Butyl 4-(4-((1-methyl-1H-benzo[d]imidazol-2-yl)carbamoyl)benzyl)piperazine-1-carboxylate]
- inhibition at 10 µM: 8%

SMILES: O=C(Nc1nc2ccccc2[nH]1)c1ccc(CN2CCNCC2)cc1 [Compound 1-3, N-(1H-benzo[d]imidazol-2-yl)-4-(piperazin-1-ylmethyl)benzamide]
- inhibition at 10 µM: 10%

SMILES: Cc1ccc(Oc2ccc(C(=O)Nc3nc4ccccc4[nH]3)cc2)nn1 [Compound 1-4, N-(1H-benzo[d]imidazol-2-yl)-4-((6-methylpyridazin-3-yl)oxy)benzamide]
- inhibition at 10 µM: 90%

SMILES: Cc1ccc(Oc2cccc(C(=O)Nc3nc4ccccc4[nH]3)c2)nn1 [Compound 1-5, N-(1H-benzo[d]imidazol-2-yl)-3-((6-methylpyridazin-3-yl)oxy)benzamide]
- inhibition at 10 µM: 65%

SMILES: Cc1ccc(Oc2ccc(C(=O)Nc3nc4cc(F)ccc4[nH]3)cc2)nn1 [Compound 1-6, N-(5-fluoro-1H-benzo[d]imidazol-2-yl)-4-((6-methylpyridazin-3-yl)oxy)benzamide]
- inhibition at 10 µM: 92%

SMILES: Cc1ccc(Oc2ccc(C(=O)Nc3nc4cc(F)c(F)cc4[nH]3)cc2)nn1 [Compound 1-7, N-(5,6-difluoro-1H-benzo[d]imidazol-2-yl)-4-((6-methylpyridazin-3-yl)oxy)benzamide]
- inhibition at 10 µM: 5%

SMILES: CCc1cnc(Oc2cccc(C(=O)Nc3nc4ccccc4[nH]3)c2)nc1 [Compound 1-8, N-(1H-benzo[d]imidazol-2-yl)-3-((5-ethylpyrimidin-2-yl)oxy)benzamide]
- inhibition at 10 µM: 44%

SMILES: CCc1cnc(Oc2ccc(C(=O)Nc3nc4ccccc4[nH]3)cc2)nc1 [Compound 1-9, N-(1H-benzo[d]imidazol-2-yl)-4-((5-ethylpyrimidin-2-yl)oxy)benzamide]
- inhibition at 10 µM: 63%

SMILES: O=C(Nc1nc2ccccc2[nH]1)c1ccc(Oc2ncc(F)cn2)cc1 [Compound 1-10, N-(1H-benzo[d]imidazol-2-yl)-4-((5-fluoropyrimidin-2-yl)oxy)benzamide]
- inhibition at 10 µM: 56%

SMILES: O=C(Nc1nc2ccccc2[nH]1)c1cccc(Oc2ncc(F)cn2)c1 [Compound 1-11, N-(1H-benzo[d]imidazol-2-yl)-3-((5-fluoropyrimidin-2-yl)oxy)benzamide]
- inhibition at 10 µM: 21%

SMILES: O=C(Nc1nc2ccccc2[nH]1)c1ccc(OCc2ccccc2)cc1 [Compound 1-12, N-(1H-benzo[d]imidazol-2-yl)-4-(benzyloxy)benzamide]
- inhibition at 10 µM: 99%

SMILES: O=C(Nc1nc2ccccc2[nH]1)c1ccc(OCc2ccc(C(F)(F)F)cc2)cc1 [Compound 1-13, N-(1H-benzo[d]imidazol-2-yl)-4-((4-(trifluoromethyl)benzyl)oxy)benzamide]
- inhibition at 10 µM: 21%

SMILES: O=C(Nc1nc2ccccc2n1Cc1ccc(C(F)(F)F)cc1)c1ccc(OCc2ccc(C(F)(F)F)cc2)cc1 [Compound 1-14, N-(1-(4-(trifluoromethyl)benzyl)-1H-benzo[d]imidazol-2-yl)-4-((4-(trifluoromethyl)benzyl)oxy)benzamide]
- inhibition at 10 µM: 15%

SMILES: Cc1ccc(Oc2ccc(C(=O)Nc3nc4ccccc4s3)cc2)nn1 [Compound 1-15, N-(benzo[d]thiazol-2-yl)-4-((6-methylpyridazin-3-yl)oxy)benzamide]
- inhibition at 10 µM: 52%

SMILES: Cc1ccc(Oc2ccc(C(=O)Nc3nc4cccnc4s3)cc2)nn1 [Compound 1-16, 4-((6-methylpyridazin-3-yl)oxy)-N-(thiazolo[5,4-b]pyridin-2-yl)benzamide]
- inhibition at 10 µM: 87%

SMILES: Cc1ccc(Oc2cccc(C(=O)Nc3nc4ccccc4s3)c2)nn1 [Compound 1-17, N-(benzo[d]thiazol-2-yl)-3-((6-methylpyridazin-3-yl)oxy)benzamide]
- inhibition at 10 µM: 88%

— patent US20240116897A1, “BENZOTHIAZOLE AND BENZIMIDAZOLE DERIVATIVES, PHARMACEUTICALLY ACCEPTABLE SALT THEREOF, PREPARATION METHOD THEREFOR, AND PHARMACEUTICAL COMPOSITION COMPRISING SAME AS ACTIVE INGREDIENT” (KOREA RESEARCH INSTITUTE OF CHEMICAL TECHNOLOGY, priority 2021, published 2024)
